Values after ≈ are worked out from the molar mass of the structure shown.
System: aqueous kinetic solubility, pH 7.4 phosphate buffer, LC-UV/MS
Assay: qHTS Assay to Find Inhibitors of T. brucei phosphofructokinase: Aqueous Kinetic Solubility
Settings: hits give high values

O=C(Cc1ccc(Cl)c(Cl)c1)Nc1ccc(S(=O)(=O)Nc2ccon2)cc1 showed a solubility of 150 µM (≈ 63.9 µg/mL).

Source: PubChem BioAssay AID624130 (National Center for Advancing Translational Sciences (NCATS), 2012)
